Data as given in PMC12140054, “Small glycomimetic antagonists of the cytomegalovirus glycoprotein UL141 prevent binding to TRAIL death receptor” (The Journal of Biological Chemistry, 2025).

System: human foreskin fibroblasts HFF-BJ (ATCC CRL-2522 cells)
Test: MTT cytotoxicity / cell viability assay
Type: cell-based
Details: 0.1 to 50 μM, 72 h
Excerpt: Cell viability as visualized by fold change of formazan-positive cells normalized to the untreated control and DMSO. Viability reduced below 40% represents the cytotoxic zone, below the dotted line in each plot. The number of biological replicates is indicated.
Human foreskin fibroblasts (HFF), a type of primary fibroblast derived from neonatal foreskin tissue, were chosen for this bioassay due to their distinct advantages in studies involving HCMV. For instance, the HHF cells provide a relevant and effective platform due to their unique susceptibility to HCMV infection, ability to mimic human immune responses, and relevance to clinical scenarios. […] HFF cells were incubated with each compound at concentrations ranging from 0.1 to 50 μM and any possible cytotoxic effect was monitored for 72 h. Tested compounds were dissolved in dimethyl sulfoxide (DMSO). […] The cytotoxic effect (CTE) is represented here as the concentration that causes a reduction of more than 40% in the number of viable cells.
Cells were seeded in a 96-well plate at a density of 1 × 10^4 cells per well for the measurement of cytotoxicity of the compounds (without UVA irradiation). […] Cells after treatment were incubated for […]. Untreated cells were considered negative control, and DMSO-treated cells (at appropriate concentration) were considered vehicle control. The classical MTT assay (3-(4,5-dimethyl thiazolyl-2)-2,5-diphenyltetrazolium bromide) ([68]) was used to measure cellular metabolic activity as an indicator of cell viability, proliferation, and cytotoxicity. Briefly, 0.5 mg/ml MTT solution was dispensed in each well of the 96-well plate and incubated for 4 h. Afterward, the MTT solution was removed and 200 μl of 100% DMSO was added to each well and the plate was placed on a microplate shaker for 5 min to dissolve the formazan granules. The absorbance was measured at 550 nm using a spectrophotometer. DMSO and MTT were purchased from Thermo Fisher Scientific. The darker the solution, the greater the number of viable, metabolically active cells. All experimental compounds were measured using at least 2 to 3 replicates for each and the averaged values from three independent experiments (n = 3) are presented. Cell viability was visualized by fold change of formazan-positive cells normalized to the untreated control and DMSO. Viability reduced below 40% represents the cytotoxic zone. All evaluations were performed using GraphPad Prism 9.5.0 (GraphPad Software, LLC), if other software was not explicitly mentioned.

Q: `CCC1C(O)C(O)CN1Cc1ccc(I)cc1` (stereo not shown) [Compound 18] was tested. Which “cytotoxicity (in words)” value did it give?
A: The value was “no cytotoxicity was detected”.
